Experiments:
glutathione = conditions: ARPE-19
Procedure: Cells were lysed by addition of a digitonin solution (0.8 mg/ml digitonin in 2 mM EDTA, pH 7.8), incubated at 37° C. for 20 min, gently shaken for 20 min at 25° C., and centrifuged at 1,500×g for 20 min at 4° C.
Total glutathione (oxidized and reduced) was determined by reduction of 5,5′-dithiobis-2-nitrobenzoic acid (DTNB) in a glutathione reductase-coupled assay in 96-well microliter plates (Ritchie, J. P., Jr., Skowronski, L., Abraham, P. & Leutzinger, Y. (1996) Clin. Chem. 42, 64-70). Briefly, 30 μl of lysates were mixed with 60 μl of cold 2.5% metaphosphoric acid, stored at 4° C. for 10 min, and centrifuged for 20 min at 1,500×g at 4° C. […] After 5 min incubation at 25° C., 50 μl of 0.72 mM NADPH were added to each well, and the initial reaction rates were determined at 412 nm. Calibration curves for pure GSH were included in each assay.

HaCaT cells = assay: tert-Butyl hydroperoxide cytotoxicity (MTT, median effect analysis) and protection by sulforaphane; assay type: cell-based, human; conditions: tert-butyl hydroperoxide 8 h
Procedure: Mouse L1210 leukemia cells, a gift from Dr. Joseph G. Cory, East Carolina State University, Greenville, N.C., were grown in RPMI 1640 medium supplemented with 10% horse serum. All cultures were incubated in a humidified atmosphere of 5% CO2 at 37° C. Media and sera were obtained from Life Technologies (Rockville, Md.).
All experiments were performed in 96-well microliter plates. ARPE-19 and HaCaT cells were seeded at 10,000 cells per well and grown for 24 h before addition of sulforaphane, whereas L1210 cells (5,000 cells/well) were not incubated before sulforaphane treatment. Solutions of sulforaphane (5 mM) in dimethyl sulfoxide were diluted with the cognate culture medium to provide final inducer concentrations of 0.16-5.0 μM. The final DMSO concentrations were 0.1% by volume.
Cell viability was determined by spectroscopic measurement of the reduction of MTT (Carmichael, J., DeGraff, W. G., Gazdar, A. F., Minna, J. D. & Mitchell, J. B. (1987) Cancer Res. 47, 936-942). The culture media were discarded after the designated incubation periods, the cells were washed three times with PBS by use of a microtiter plate washer (Ultrawash Plus, Dynex Technologies, Chantilly, Va.). Each well then received 150 μl of an MTT solution (0.5 mg/ml) in serum-free medium. The plates were incubated for 2 h at 37° C., the MTT solution was discarded, 100 μl of DMSO were added to each well, and the plates were shaken at 200 rpm on an orbital shaker for 5 min. The absorbances of the wells were determined at 555 nm with a microtiter plate reader (Spectra Max Plus, Molecular Devices, Sunnyvale, Calif.). The absorbance of reduced MIT was then compared at each inducer and oxidant concentration to that of untreated control cells that received only the vehicle in which sulforaphane (DMSO) and menadione (DMSO or PBS) were dissolved. In each experiment three identical 96-well plates were used and the means of the absorbance values, the standard deviations of these means, and their coefficients of variation were calculated.
Dose-effect analyses were performed according to the Median Effect Equation, by use of a computer program (Chou, T. C. & Hayball, M. (1996) CalcuSyn for Windows 3.1 and 95: multiple dose effect analyzer and manual for IBM-PC, Biosoft, Cambridge, U.K). The equation: fa/fu=[D/Dm]^m, where fa is the fraction of cells affected by the oxidant, fu is the fraction unaffected (i.e., 1-fa), D is the dose of oxidant required to produce the effect fa, Dm is the concentration of oxidant required to produce a 50% effect, i.e., when fa=fu, and the slope m is a measure of the sigmoidicity of the dose-response curve, and is therefore a measure of cooperativity. The results are analyzed by plotting log(fa/fu) with respect to log D of the oxidant. The computer program provides the slope (m) of the curves, and the goodness of fit (r^2) to linearity.

[1] = after sulforaphane 0.63 μM 24 h
[2] = after sulforaphane 1.25 μM 24 h
[3] = after sulforaphane 2.50 μM 24 h

In the case of `C[S+]([O-])CCCCN=C=S` (centres unmarked) [Sulforaphane], the “concentrations of GSH in cytosols” value (glutathione; sulforaphane 0-5.0 μM 24 h) is reported as “rose with exposure to increasing concentrations of sulforaphane”, the “increase of GSH levels” value (glutathione; sulforaphane 2.5 μM 24 h) is reported as “about 50%” and the “Dm (median effect concentration) of tert-butyl hydroperoxide” value (from here on “Dm (median effect concentration)”) (HaCaT cells; [1]) is reported as 113 µM. The “m (slope of median effect plot) for tert-butyl hydroperoxide” value (“m (slope of median effect plot)” for short) (HaCaT cells; [1]) was 0.894, the “Dm (median effect concentration)” value (HaCaT cells; [2]) was 166 µM and the “m (slope of median effect plot)” value (HaCaT cells; [2]) was 0.921. The “Dm (median effect concentration)” value (HaCaT cells; [3]) was 200 µM and the “m (slope of median effect plot)” value (HaCaT cells; [3]) was 0.768.

— US8709406B2, “Prevention and treatment of oxidative stress disorders by gluthathione and phase II detoxification enzymes” (Brassica Foundation for ChemoProtection Research, priority 2001, dated 2014)
